From ChEMBL document CHEMBL1138218, “Structure-activity relationship studies of ethyl 2-amino-6-bromo-4-(1-cyano-2-ethoxy-2-oxoethyl)-4H-chromene-3-carboxylate (HA 14-1), an antagonist for antiapoptotic Bcl-2 proteins to overcome drug resistance in cancer” (J Med Chem, 2006)

Assays:
[1] = biological target: T1, Apoptosis regulator Bcl-2 (Homo sapiens, UniProt P10415); experiment: Growth inhibition of Jurkat cell overexpressing Bcl2; type: functional, cell-based
[2] = biological target: T2, Bcl-2-like protein 1 (Homo sapiens, UniProt Q07817); experiment: Growth inhibition of Jurkat cell overexpressing BclXL; type: functional, cell-based
T2 sequence (Q07817 whole entry): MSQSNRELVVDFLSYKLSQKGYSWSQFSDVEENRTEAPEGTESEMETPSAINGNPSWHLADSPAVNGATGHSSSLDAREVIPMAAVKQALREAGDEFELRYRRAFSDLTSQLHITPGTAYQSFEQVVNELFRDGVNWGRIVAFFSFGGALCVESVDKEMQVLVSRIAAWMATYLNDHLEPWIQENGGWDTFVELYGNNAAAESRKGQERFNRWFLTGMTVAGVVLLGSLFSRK

[3] = biological target: T1, Apoptosis regulator Bcl-2; experiment: Binding affinity to Bcl2 by FP assay
[4] = biological target: T2, Bcl-2-like protein 1; experiment: Binding affinity to BclXL by FP assay
[5] = system: Jurkat; experiment: Growth inhibition of Jurkat cell; type: functional; details: Homo sapiens
[6] = biological target: T3, Bcl-2-like protein 2 (Homo sapiens, UniProt Q92843); experiment: Binding affinity to Bclw by FP assay
T3 sequence (Q92843 whole entry): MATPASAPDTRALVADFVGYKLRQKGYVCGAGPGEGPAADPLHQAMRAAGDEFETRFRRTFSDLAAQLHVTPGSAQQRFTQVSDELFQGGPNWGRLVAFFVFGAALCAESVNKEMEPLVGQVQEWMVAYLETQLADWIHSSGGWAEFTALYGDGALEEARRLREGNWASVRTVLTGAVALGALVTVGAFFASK

[7] = Ratio of GI50 for Jurkat cells overexpressing Bcl2 or BclXL to normal Jurkat cells; type: functional, Homo sapiens
[8] = system: NCI-H460; experiment: Growth inhibition of NCI-H460 cell; type: functional; details: Homo sapiens

T1 sequence (P10415 whole entry): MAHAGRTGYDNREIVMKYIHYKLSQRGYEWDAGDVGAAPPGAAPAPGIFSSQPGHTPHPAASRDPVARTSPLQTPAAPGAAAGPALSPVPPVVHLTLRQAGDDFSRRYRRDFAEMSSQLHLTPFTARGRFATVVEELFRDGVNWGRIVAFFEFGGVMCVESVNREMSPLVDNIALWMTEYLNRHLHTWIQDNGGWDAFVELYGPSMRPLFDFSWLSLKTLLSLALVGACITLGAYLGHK

Row | GI50 [1] [µM] | GI50 [2] [µM] | Ki [3] [µM] | Ki [4] [µM] | GI50 [5] [µM] | Ki [6] [µM] | GI50 [8] [µM] | SMILES | RatioGI50 [7]
1 | 94 | 99 | 531 | 570 | 66 | 697 | 157 | CCOC(=O)C1=C(N)Oc2ccccc2C1C(C#N)C(=O)OCC (configuration not stated) | <1.5
2 | 37 | 41 | 309 | 191 | 29 | 199 | 102 | CCOC(=O)C1=C(N)Oc2ccc(C)cc2C1C(C#N)C(=O)OCC (configuration not stated) | <1.41
3 | 5.7 | 6.3 | 128 | 70.7 | 5.2 | 56.7 | 24.9 | CCCc1ccc2c(c1)C(C(C#N)C(=O)OCC)C(C(=O)OCC)=C(N)O2 (configuration not stated) | <1.21
4 | 147 | 183 | – | – | 13 | – | – | Nc1nc2[nH]cnc2c(=S)[nH]1 [THIOGUANINE] | >11
5 | 26 | 24 | – | – | 0.21 | – | – | COc1cccc2c1C(=O)c1c(O)c3c(c(O)c1C2=O)C[C@@](O)(C(=O)CO)C[C@@H]3O[C@H]1C[C@H](N)[C@H](O)[C@H](C)O1 [DOXORUBICIN] | >100
6 | 0.99 | 0.99 | – | 21.7 | 0.8 | 20.3 | 0.16 | CCOC(=O)C1=C(N)Oc2ccc(-c3ccc(C(C)(C)C)cc3)cc2C1C(C#N)C(=O)OCC (configuration not stated) | <1.24
7 | 12 | 13 | 210 | 135 | 13 | 121 | 79.1 | CCOC(=O)C1=C(N)Oc2ccc(CC)cc2C1C(C#N)C(=O)OCC (configuration not stated) | <1
8 | 3.8 | 3.9 | 128 | 36.5 | 3.5 | 30.8 | 11 | CCOC(=O)C1=C(N)Oc2ccc(C3CCCC3)cc2C1C(C#N)C(=O)OCC (configuration not stated) | <1.1
9 | > 10 | > 10 | – | – | < 0.01 | – | – | CC(=O)O[C@H]1C(=O)[C@@]2(C)[C@H]([C@H](OC(=O)c3ccccc3)[C@]3(O)C[C@H](OC(=O)[C@H](O)[C@@H](NC(=O)c4ccccc4)c4ccccc4)C(C)=C1C3(C)C)[C@]1(OC(C)=O)CO[C@@H]1C[C@@H]2O [PACLITAXEL] | >100
10 | 4.2 | 4.1 | 112 | 52.9 | 3.9 | 41.2 | 15.9 | CCOC(=O)C1=C(N)Oc2ccc(-c3ccccc3)cc2C1C(C#N)C(=O)OCC (configuration not stated) | <1.07
